Measured values taken from US20240018161A1, “MODULATORS OF CYSTIC FIBROSIS TRANSMEMBRANE CONDUCTANCE REGULATOR” (VERTEX PHARMACEUTICALS INCORPORATED, priority 2020, published 2024).
pEC50: −log10 of the molar value. Read-outs that look alike come from different tables or passages of the source.

Target: CFTR-mediated chloride transport in human intestinal epithelial enteroid cells (Homo sapiens, UniProt P13569)
Assay: Membrane potential dye, Enteroid Assay A
Type: cell-based
Settings: for pEC50: read-out: Ent. A EC50
Protocol: Base medium (ADF+++) consisted of Advanced DMEM/Ham's F12, 2 mM Glutamax, 10 mM HEPES, […] penicillin/streptomycin.
Bath 1 Buffer consisted of 1 mM MgCl2, 160 mM NaCl, 4.5 mM KCl, 10 mM HEPES, 10 mM Glucose, 2 mM CaCl2.
Chloride Free Buffer consisted of 1 mM Magnesium Gluconate, 2 mM Calcium Gluconate, 4.5 mM Potassium Gluconate, 160 mM Sodium Gluconate, 10 mM HEPES, 10 mM Glucose.
Bath1 Dye Solution consisted of Bath 1 Buffer, 0.04% Pluronic F127, 20 μM Methyl Oxonol, 30 μM CaCCinh-A01, 30 μM Chicago Sky Blue.
Chloride Free Dye Solution consisted of Chloride Free Buffer, 0.04% Pluronic F127, 20 μM Methyl Oxonol, 30 μM CaCCinh-A01, 30 μM Chicago Sky Blue.
3. Enteroid Cell Harvesting and Seeding
Cells were recovered in cell recovery solution, collected by centrifugation at 650 rpm for 5 min at 4° C., resuspended in TryPLE and incubated for 5 min at 37° C. Cells were then collected by centrifugation at 650 rpm for 5 min at 4° C. and resuspended in IEMM containing 10 μM ROCK inhibitor (RI).
4. Membrane Potential Dye, Enteroid Assay A
Briefly, cells were washed 5 times in Bath 1 Buffer. Bath 1 Dye Solution was added, and the cells were incubated for 25 min at room temperature. Following dye incubation, cells were washed 3 times in Chloride Free Dye Solution. Chloride transport was initiated by addition of Chloride Free Dye Stimulation Solution and the fluorescence signal was read for 15 min. […] Chloride transport was then expressed as a percentage of the chloride transport following treatment with 3 μM N-[(6-amino-2-pyridyl)sulfonyl]-6-(3-fluoro-5-isobutoxy-phenyl)-2-[(4S)-2,2,4-trimethylpyrrolidin-1-yl]pyridine-3-carboxamide, 3 μM (R)-1-(2,2-difluorobenzo[d][1,3]dioxol-5-yl)-N-(1-(2,3-dihydroxypropyl)-6-fluoro-2-(1-hydroxy-2-methylpropan-2-yl)-1H-indol-5-yl)cyclopropanecarboxamide and 300 nM acute N-[2,4-bis(1,1-dimethylethyl)-5-hydroxyphenyl]-1,4-dihydro-4-oxoquinoline-3-carboxamide triple combination control (% Activity).

[1] = percentage of chloride transport of triple combination control (3 μM N-[(6-amino-2-pyridyl)sulfonyl]-6-(3-fluoro-5-isobutoxy-phenyl)-2-[(4S)-2,2,4-trimethylpyrrolidin-1-yl]pyridine-3-carboxamide based)

Chain of CFTR-mediated chloride transport in human intestinal epithelial enteroid cells (P13569 with tags, fused parts or gaps DEL508-508): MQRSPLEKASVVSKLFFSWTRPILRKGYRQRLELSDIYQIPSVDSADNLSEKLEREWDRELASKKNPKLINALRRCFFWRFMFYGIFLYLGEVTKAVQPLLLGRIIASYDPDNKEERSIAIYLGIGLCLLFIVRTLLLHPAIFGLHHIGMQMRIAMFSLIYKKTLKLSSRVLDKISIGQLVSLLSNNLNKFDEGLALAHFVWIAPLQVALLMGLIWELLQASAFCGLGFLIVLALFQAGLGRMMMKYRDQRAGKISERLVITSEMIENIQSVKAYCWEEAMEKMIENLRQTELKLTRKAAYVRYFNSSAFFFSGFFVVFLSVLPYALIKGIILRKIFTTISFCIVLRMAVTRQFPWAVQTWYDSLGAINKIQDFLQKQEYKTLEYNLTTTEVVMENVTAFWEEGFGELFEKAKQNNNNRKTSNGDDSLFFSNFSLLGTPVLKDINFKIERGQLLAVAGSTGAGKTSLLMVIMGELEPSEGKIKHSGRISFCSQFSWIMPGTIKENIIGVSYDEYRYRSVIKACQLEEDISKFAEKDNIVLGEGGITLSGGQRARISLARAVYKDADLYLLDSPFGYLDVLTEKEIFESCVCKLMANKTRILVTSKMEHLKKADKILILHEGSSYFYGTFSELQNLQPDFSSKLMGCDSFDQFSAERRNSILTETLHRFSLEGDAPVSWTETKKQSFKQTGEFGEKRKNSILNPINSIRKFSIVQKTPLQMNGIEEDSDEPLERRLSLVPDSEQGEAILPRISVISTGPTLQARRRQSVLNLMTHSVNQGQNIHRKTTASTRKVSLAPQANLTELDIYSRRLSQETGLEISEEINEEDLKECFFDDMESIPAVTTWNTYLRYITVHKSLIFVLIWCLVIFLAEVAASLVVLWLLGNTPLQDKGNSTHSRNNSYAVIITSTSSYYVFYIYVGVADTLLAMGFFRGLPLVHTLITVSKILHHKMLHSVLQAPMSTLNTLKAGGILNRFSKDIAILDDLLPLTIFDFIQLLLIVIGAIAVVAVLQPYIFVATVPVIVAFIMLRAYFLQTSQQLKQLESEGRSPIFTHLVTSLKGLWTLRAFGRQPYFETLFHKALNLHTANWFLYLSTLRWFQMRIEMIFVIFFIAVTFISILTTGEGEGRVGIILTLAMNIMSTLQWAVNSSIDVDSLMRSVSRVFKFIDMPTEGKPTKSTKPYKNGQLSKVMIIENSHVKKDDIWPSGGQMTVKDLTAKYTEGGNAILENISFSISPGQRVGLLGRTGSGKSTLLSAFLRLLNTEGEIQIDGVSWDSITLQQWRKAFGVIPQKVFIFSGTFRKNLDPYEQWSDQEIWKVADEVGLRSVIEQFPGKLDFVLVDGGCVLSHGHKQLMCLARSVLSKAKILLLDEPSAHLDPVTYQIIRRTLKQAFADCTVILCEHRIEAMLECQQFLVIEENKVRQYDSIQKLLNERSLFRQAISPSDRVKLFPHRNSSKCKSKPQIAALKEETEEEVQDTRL

| Compound | Ent. A Max Activity (%) (Enteroid Assay A) | pEC50 (Enteroid Assay A) | Ent. A Max Activity (%) [1] | pEC50 (enteroid cells incubated with test compound 18-24 hours, acute 10 μM forskolin and 300 nM N-[2,4-bis(1,1-dimethylethyl)-5-hydroxyphenyl]-1,4-dihydro-4-oxoquinoline-3-carboxamide) |
| --- | --- | --- | --- | --- |
| Cc1cccc(C)c1-c1cc2nc(n1)NS(=O)(=O)c1cccc(c1)C(=O)N1CCN(C3CCC3(C)C)C[C@H](C1)O2 (single isomer, unassigned) [Compound 9] | +++ (+++ is >600%) | > 6.00 |  |  |
| Cc1cccc(C)c1-c1cc2nc(n1)NS(=O)(=O)c1cccc(c1)C(=O)N1CCN(C3CCC3(C)C)C[C@H](C1)O2 (single isomer, unassigned) [Compound 10] | +++ (+++ is >600%) | > 6.00 |  |  |
| Cc1cccc(C)c1-c1cc2nc(n1)NS(=O)(=O)c1cccc(c1)C(=O)N1CCN(C3CCC(C)(C)C3)C[C@H](C1)O2 (single isomer, unassigned) [Compound 36] | +++ (+++ is >600%) | > 6.00 |  |  |
| Cc1cccc(C)c1-c1cc2nc(n1)NS(=O)(=O)c1cccc(c1)C(=O)N1CCN(C3CCC(C)(C)C3)C[C@H](C1)O2 (single isomer, unassigned) [Compound 37] | +++ (+++ is >600%) | > 6.00 |  |  |
| Cc1cccc(C)c1-c1cc2nc(n1)NS(=O)(=O)c1cccc(c1)C(=O)N1CCN([C@H]3CC[C@@H](F)CC3)C[C@H](C1)O2 (single isomer, unassigned) [Compound 38] | +++ (+++ is >600%) | > 6.00 |  |  |
| Cc1cccc(C)c1-c1cc2nc(n1)NS(=O)(=O)c1cccc(c1)C(=O)N1CCN([C@H]3CC[C@@H](F)CC3)C[C@H](C1)O2 (single isomer, unassigned) [Compound 39] | +++ (+++ is >600%) | 5.52 to 6.00 |  |  |
| Cc1cccc(C)c1-c1cc2nc(n1)NS(=O)(=O)c1cccc(c1)C(=O)N1CCN(CCC3(C(F)(F)F)CC3)CC(C1)O2 (single isomer, unassigned) [Compound 69, 12-(2,6-Dimethylphenyl)-18-{2-[1-(trifluoromethyl)cyclopropyl]ethyl}-15-oxa-8λ^6-thia-1,9,11,18,22-pentaazatetracyclo[14.4.1.13,7.110,14]tricosa-3(23),4,6,10(22),11,13-hexaene-2,8,8-trione] | +++ (+++ is >600%) | > 6.00 |  |  |
| Cc1cccc(C)c1-c1cc2nc(n1)NS(=O)(=O)c1cccc(c1)C(=O)N1CCN([C@@H](C)C(C)(C)C)C[C@H](C1)O2 (single isomer, unassigned) [Compound 72] | +++ (+++ is >600%) | > 6.00 |  |  |
| Cc1cccc(C)c1-c1cc2nc(n1)NS(=O)(=O)c1cccc(c1)C(=O)N1CCN([C@@H](C)C(C)(C)C)C[C@H](C1)O2 (single isomer, unassigned) [Compound 73] | +++ (+++ is >600%) | > 6.00 |  |  |
| Cc1cccc(C)c1-c1cc2nc(n1)NS(=O)(=O)c1cccc(c1)C(=O)N1CCN(Cc3ccccc3)C[C@H](O2)[C@@H]1CC(C)C (single isomer, unassigned) [Compound 87] | ++ (++ is 30-60%) | > 6.00 |  |  |
| Cc1cccc(C)c1-c1cc2nc(n1)NS(=O)(=O)c1cccc(c1)C(=O)N1CCN(Cc3ccccc3)CC(O2)C1CC(C)C (single isomer, unassigned) [Compound 88, 18-Benzyl-12-(2,6-dimethylphenyl)-21-(2-methylpropyl)-15-oxa-8λ^6-thia-1,9,11,18,22-pentaazatetracyclo[14.4.1.13,7.110,14]tricosa-3(23),4,6,10(22),11,13-hexaene-2,8,8-trione] | ++ (++ is 30-60%) | > 6.00 |  |  |
| Cc1cccc(C)c1-c1cc2nc(n1)NS(=O)(=O)c1cccc(c1)C(=O)N1CCN(Cc3ccccc3)CC(O2)C1CC(C)C (single isomer, unassigned) [Compound 89, 18-benzyl-12-(2,6-dimethylphenyl)-21-(2-methylpropyl)-15-oxa-8λ^6-thia-1,9,11,18,22-pentaazatetracyclo[14.4.1.13,7.110,14]tricosa-3(23),4,6,10(22),11,13-hexaene-2,8,8-trione] | +++ (+++ is >600%) | > 6.00 |  |  |
| Cc1cccc(C)c1-c1cc2nc(n1)NS(=O)(=O)c1cccc(c1)C(=O)N1CCN(Cc3ccccc3)CC(O2)C1CC(C)C (single isomer, unassigned) [Compound 90, 18-Benzyl-12-(2,6-dimethylphenyl)-21-(2-methylpropyl)-15-oxa-8λ^6-thia-1,9,11,18,22-pentaazatetracyclo[14.4.1.13,7.110,14]tricosa-3(23),4,6,10(22),11,13-hexaene-2,8,8-trione] | +++ (+++ is >600%) | > 6.00 |  |  |
| Cc1cccc(C)c1-c1cc2nc(n1)NS(=O)(=O)c1cccc(c1)C(=O)N1CCNCC(O2)C1CC(C)C (single isomer, unassigned) [Compound 91, 12-(2,6-Dimethylphenyl)-21-(2-methylpropyl)-15-oxa-8λ^6-thia-1,9,11,18,22-pentaazatetracyclo[14.4.1.13,7.110,14]tricosa-3(23),4,6,10(22),11,13-hexaene-2,8,8-trione] | +++ (+++ is >600%) | 5.52 to 6.00 |  |  |
| Cc1cccc(C)c1-c1cc2nc(n1)NS(=O)(=O)c1cccc(c1)C(=O)N1CCN(CCC(C)(C)C)CC(O2)C1CC(C)C (single isomer, unassigned) [Compound 92, 18-(3,3-Dimethylbutyl)-12-(2,6-dimethylphenyl)-21-(2-methylpropyl)-15-oxa-8λ^6-thia-1,9,11,18,22-pentaazatetracyclo[14.4.1.13,7.110,14]tricosa-3(23),4,6,10(22),11,13-hexaene-2,8,8-trione] | +++ (+++ is >600%) | > 6.00 |  |  |
| Cc1cccc(C)c1-c1cc2nc(n1)NS(=O)(=O)c1cccc(c1)C(=O)N1CCN(Cc3ccccc3)CC(O2)C1CC(C)C (single isomer, unassigned) [Compound 94, 18-Benzyl-12-(2,6-dimethylphenyl)-21-(2-methylpropyl)-15-oxa-8λ^6-thia-1,9,11,18,22-pentaazatetracyclo[14.4.1.13,7.110,14]tricosa-3(23),4,6,10(22),11,13-hexaene-2,8,8-trione] | +++ (+++ is >600%) | > 6.00 |  |  |
| Cc1cccc(C)c1-c1cc2nc(n1)NS(=O)(=O)c1cccc(c1)C(=O)N1CCN(C(=O)OCc3ccccc3)C[C@H](O2)[C@H]1C (single isomer, unassigned) [Compound 112] | +++ (+++ is >600%) | > 6.00 |  |  |
| Cc1cccc(C)c1-c1cc2nc(n1)NS(=O)(=O)c1cccc(c1)C(=O)N1CCN(C(=O)OCc3ccccc3)C[C@@H](O2)[C@H]1C (single isomer, unassigned) [Compound 113] | + (+ is <30%) | 4.52 to 5.52 |  |  |
| Cc1cccc(C)c1-c1cc2nc(n1)NS(=O)(=O)c1cccc(c1)C(=O)N1Cc3cccnc3[C@H](C1)O2 (single isomer, unassigned) [Compound 196, 12-(2,6-Dimethylphenyl)-15-oxa-8λ^6-thia-1,9,11,18,25-pentaazapentacyclo[14.7.1.13,7.110,14.017,22]hexacosa-3,5,7(26),10(25),11,13,17,19,21-nonaene-2,8,8-trione] |  |  | + (+ is <300%) |  |
| Cc1cccc(C)c1-c1cc2nc(n1)NS(=O)(=O)c1cccc(c1)C(=O)N1CC3CCCN(C)C3[C@H](C1)O2 (single isomer, unassigned) [Compound 199, 12-(2,6-dimethylphenyl)-18-methyl-15-oxa-8λ^6-thia-1,9,11,18,25-pentaazapentacyclo[14.7.1.13,7.110,14.017,22]hexacosa-3,5,7(26),10(25),11,13-hexaene-2,8,8-trione] |  |  | +++ (+++ is >60%) | > 6.00 |
| Cc1cccc(C)c1-c1cc2nc(n1)NS(=O)(=O)c1cccc(c1)C(=O)N1CC3CCCN(C)C3[C@@H](C1)O2 (single isomer, unassigned) [Compound 200, 12-(2,6-dimethylphenyl)-18-methyl-15-oxa-8λ^6-thia-1,9,11,18,25-pentaazapentacyclo[14.7.1.13,7.110,14.017,22]hexacosa-3,5,7(26),10(25),11,13-hexaene-2,8,8-trione] |  |  | + (+ is <300%) |  |
| Cc1cccc(C)c1-c1cc2nc(n1)NS(=O)(=O)c1cccc(c1)C(=O)N1CC(O2)C2CCCN(C)C2C1 (single isomer, unassigned) [Compound 201, 12-(2,6-Dimethylphenyl)-21-methyl-15-oxa-8λ^6-thia-1,9,11,21,25-pentaazapentacyclo[14.7.1.13,7.110,14.017,22]hexacosa-3,5,7(26),10(25),11,13-hexaene-2,8,8-trione] | ++ (++ is 30-60%) | 4.52 to 5.52 |  |  |
